Results taken from US20060188938A1, “Compounds for inhibiting beta-amyloid production and methods of identifying the compounds” (priority 2005, published 2006).

System: β-amyloid production by 7W WT APP751 CHO cells
Assay: Screening of NF-kB activation inhibitors, Aβ1-40 and Aβ1-42 ELISA (Example 3)
Type: cell-based, Chinese hamster
Details: 500 nM, 24 hours (FIG. 6)
Procedure: Most of the compounds screened can be obtained as Calbiochem products from EMD Biosciences, Inc., La Jolla, Calif. R—and S-Niguldipine are available e.g., from Tocris Cookson Inc., Ellisville, Mo. CAPE and Artemisinin are available, e.g., as a Sigma product from Sigma-Aldrich Corp., St. Louis, Mo.
Each compound was dissolved in DMSO. 7W WT APP751 CHO cells overexpressing APP751 were plated into 96-well culture plates in 200 μL of culture medium. Each compound from the library was added to confluent cells to a final concentration of 500 nM, 1 μM, 5 μM, 10 μM and/or 30 μM. After 24 hours of treatment, culture medium was collected and dissolved 10-fold and 2-fold for measuring the level of Aβ1-40 and Aβ1-42, respectively. Aβ1-40 and Aβ1-42 were determined using commercially available ELISAs (Biosource, CA), following the recommendations of the manufacturer.
In the case of `NC(=O)Nc1sc(-c2ccc(F)cc2)cc1C(N)=O` [IKK-2 Inhibitor IV], the “concentration of Aβ1-40 compared to controls” value is reported as “significantly decreased”, the “concentration of Aβ1-42 compared to controls” value is reported as “significantly decreased” and the “concentration of total β-amyloid compared to controls” value is reported as “significantly decreased”. In the case of `Nc1ccc2ncnc(NCCc3ccc(Oc4ccccc4)cc3)c2c1` [6-amino-4-(4-phenoxyphenylethylamino)quinazoline], the “concentration of Aβ1-40 compared to controls” value is reported as “significantly decreased”, the “concentration of Aβ1-42 compared to controls” value is reported as “significantly decreased” and the “concentration of total β-amyloid compared to controls” value is reported as “significantly decreased”. For `CC1=C(O)C(=O)C=C2C1=CC=C1[C@@]2(C)CC[C@@]2(C)[C@@H]3C[C@](C)(C(=O)O)CC[C@]3(C)CC[C@]12C` [celastrol], the “concentration of Aβ1-40 compared to controls” value was “significantly decreased”, the “concentration of Aβ1-42 compared to controls” value was “significantly decreased” and the “concentration of total β-amyloid compared to controls” value was “significantly decreased”.

Same assay, conditions: 1 μM, 24 hours (FIG. 6)
For `COC(=O)C1=C(C)NC(C)=C(C(=O)OCCCN2CCC(c3ccccc3)(c3ccccc3)CC2)[C@@H]1c1cccc([N+](=O)[O-])c1.Cl` [R-niguldipine], the “concentration of Aβ1-40 compared to controls” value was “significantly decreased”, the “concentration of Aβ1-42 compared to controls” value was “significantly decreased” and the “concentration of total β-amyloid compared to controls” value was “significantly decreased”. For `COC(=O)C1=C(C)NC(C)=C(C(=O)OCCCN2CCC(c3ccccc3)(c3ccccc3)CC2)[C@H]1c1cccc([N+](=O)[O-])c1.Cl` [(S)-(+)-niguldipine], the “concentration of Aβ1-40 compared to controls” value was “significantly decreased”, the “concentration of Aβ1-42 compared to controls” value was “significantly decreased” and the “concentration of total β-amyloid compared to controls” value was “significantly decreased”.

Same assay, conditions: 5 μM, 24 hours (FIG. 6)
With `NC(=O)Nc1sc(-c2ccc(F)cc2)cc1C(N)=O` [IKK-2 Inhibitor IV] the “concentration of Aβ1-40 compared to controls” value was “significantly decreased”, the “concentration of Aβ1-42 compared to controls” value was “significantly decreased” and the “concentration of total β-amyloid compared to controls” value was “significantly decreased”. In the case of `Nc1ccc2ncnc(NCCc3ccc(Oc4ccccc4)cc3)c2c1` [6-amino-4-(4-phenoxyphenylethylamino)quinazoline], the “concentration of Aβ1-40 compared to controls” value is reported as “significantly decreased”, the “concentration of Aβ1-42 compared to controls” value is reported as “significantly decreased” and the “concentration of total β-amyloid compared to controls” value is reported as “significantly decreased”. With `C=C1C(=O)O[C@@H]2C[C@@]3(C)CCCC(=C)[C@@H]3C[C@H]12` [isohelenin] the “concentration of Aβ1-40 compared to controls” value was “significantly decreased”, the “concentration of Aβ1-42 compared to controls” value was “significantly decreased” and the “concentration of total β-amyloid compared to controls” value was “significantly decreased”. With `COC(=O)C1=C(C)NC(C)=C(C(=O)OCCCN2CCC(c3ccccc3)(c3ccccc3)CC2)[C@@H]1c1cccc([N+](=O)[O-])c1.Cl` [R-niguldipine] the “concentration of Aβ1-40 compared to controls” value was “significantly decreased”, the “concentration of Aβ1-42 compared to controls” value was “significantly decreased” and the “concentration of total β-amyloid compared to controls” value was “significantly decreased”. For `CC1=C(O)C(=O)C=C2C1=CC=C1[C@@]2(C)CC[C@@]2(C)[C@@H]3C[C@](C)(C(=O)O)CC[C@]3(C)CC[C@]12C` [celastrol], the “concentration of Aβ1-40 compared to controls” value was “significantly decreased”, the “concentration of Aβ1-42 compared to controls” value was “significantly decreased” and the “concentration of total β-amyloid compared to controls” value was “significantly decreased”. In the case of `COC(=O)C1=C(C)NC(C)=C(C(=O)OCCCN2CCC(c3ccccc3)(c3ccccc3)CC2)[C@H]1c1cccc([N+](=O)[O-])c1.Cl` [(S)-(+)-niguldipine], the “concentration of Aβ1-40 compared to controls” value is reported as “significantly decreased”, the “concentration of Aβ1-42 compared to controls” value is reported as “significantly decreased” and the “concentration of total β-amyloid compared to controls” value is reported as “significantly decreased”.

Same assay, conditions: 10 μM, 24 hours (FIG. 6)
In the case of `C=C1C(=O)[C@@]23[C@H](O)C[C@@H]4C(C)(C)CC[C@H](O)[C@@]4(CO)[C@@H]2CC[C@@H]1[C@H]3O` [kamebakaurin], the “concentration of Aβ1-40 compared to controls” value is reported as “significantly decreased”, the “concentration of Aβ1-42 compared to controls” value is reported as “significantly decreased” and the “concentration of total β-amyloid compared to controls” value is reported as “significantly decreased”. With `C=C1C(=O)O[C@@H]2C[C@@]3(C)CCCC(=C)[C@@H]3C[C@H]12` [isohelenin] the “concentration of Aβ1-40 compared to controls” value was “significantly decreased”, the “concentration of Aβ1-42 compared to controls” value was “significantly decreased” and the “concentration of total β-amyloid compared to controls” value was “significantly decreased”.

Same assay, conditions: 30 μM, 24 hours (FIG. 6)
For `C=C1C(=O)[C@@]23[C@H](O)C[C@@H]4C(C)(C)CC[C@H](O)[C@@]4(CO)[C@@H]2CC[C@@H]1[C@H]3O` [kamebakaurin], the “concentration of Aβ1-40 compared to controls” value was “significantly decreased”, the “concentration of Aβ1-42 compared to controls” value was “significantly decreased” and the “concentration of total β-amyloid compared to controls” value was “significantly decreased”. For `COC(=O)C1=C(C)NC(C)=C(C(=O)OCCCN2CCC(c3ccccc3)(c3ccccc3)CC2)[C@@H]1c1cccc([N+](=O)[O-])c1.Cl` [R-niguldipine], the “concentration of Aβ1-40 compared to controls” value was “significantly decreased”, the “concentration of Aβ1-42 compared to controls” value was “significantly decreased” and the “concentration of total β-amyloid compared to controls” value was “significantly decreased”. With `COC(=O)C1=C(C)NC(C)=C(C(=O)OCCCN2CCC(c3ccccc3)(c3ccccc3)CC2)[C@H]1c1cccc([N+](=O)[O-])c1.Cl` [(S)-(+)-niguldipine] the “concentration of Aβ1-40 compared to controls” value was “significantly decreased”, the “concentration of Aβ1-42 compared to controls” value was “significantly decreased” and the “concentration of total β-amyloid compared to controls” value was “significantly decreased”.

System: not given
Assay: not given
Details: not given
`CCOC(=O)C1=C(C)NC(C)=C(C(=O)OCC)C1c1ccc(F)cc1` [Example 51, Diethyl 4-(4-fluorophenyl)-1,4-dihydro-2,6-dimethylpyridine-3,5-dicarboxylate] showed a melting point of 150 to 151 °C. With `CCOC(=O)C1=C(C)NC(C)=C(C(=O)OCC)C1c1cc(Cl)cc(Cl)c1` [Example 37, Diethyl 4-(3,5-dichlorophenyl)-1,4-dihydro-2,6-dimethylpyridine-3,5-dicarboxylate] the melting point was 102 to 104 °C.

System: β-amyloid production by 7W WT APP751 CHO cells
Assay: Screening of dihydropyridine compounds (Maybridge), Aβ1-40 and Aβ1-42 ELISA (Example 2)
Type: cell-based, Chinese hamster
Details: 30 μM, 24 hours (FIGS. 5A-B)
Procedure: Dihydropyridine compounds were obtained from Maybridge (England). Each compound was dissolved in DMSO. 7W WT APP751 CHO cells overexpressing APP751 were plated into 96-well culture plates in 200 μL of culture medium. Each compound from the library was added to confluent cells to a final concentration of 30 μM. After 24 hours of treatment, culture medium was collected and dissolved 10-fold and 2-fold for measuring the level of Aβ1-40 and Aβ1-42, respectively. Aβ1-40 and Aβ1-42 were determined using commercially available ELISAs (Biosource, CA), following the recommendations of the manufacturer.
With `CCOC(=O)C1=C(C)NC(C)=C(C(=O)OCC)C1c1cccc([N+](=O)[O-])c1` [XBX 00343, diethyl 2,6-dimethyl-4-(3-nitrophenyl)-1,4-dihydropyridine-3,5-dicarboxylate] the “concentration of Aβ1-40 compared to controls” value was “significantly decreased” and the “concentration of total β-amyloid (Aβ1-40+Aβ1-42) compared to controls” value was “significantly decreased”. With `COC(=O)C1=C(C)NC(C)=C(C(=O)OC)C1c1ccc(Cl)c(Cl)c1` [JFD 03293, dimethyl 4-(3,4-dichlorophenyl)-2,6-dimethyl-1,4-dihydropyridine-3,5-dicarboxylate] the “concentration of Aβ1-40 compared to controls” value was “significantly decreased”, the “concentration of Aβ1-42 compared to controls” value was “significantly decreased” and the “concentration of total β-amyloid (Aβ1-40+Aβ1-42) compared to controls” value was “significantly decreased”. In the case of `N#Cc1c(-c2cccs2)cc(-c2ccccc2)[nH]c1=O` [HTS 10306, 2-oxo-6-phenyl-4-(2-thienyl)-1,2-dihydro-3-pyridinecarbonitrile], the “concentration of Aβ1-40 compared to controls” value is reported as “significantly decreased”, the “concentration of Aβ1-42 compared to controls” value is reported as “significantly decreased” and the “concentration of total β-amyloid (Aβ1-40+Aβ1-42) compared to controls” value is reported as “significantly decreased”. With `COC(=O)C1=C(C)NC(C)=C(C(=O)OC)C1c1ccc(Cl)cc1Cl` [RJC 03423, dimethyl 4-(2,4-dichlorophenyl)-2,6-dimethyl-1,4-dihydro-3,5-pyridinedicarboxylate] the “concentration of Aβ1-40 compared to controls” value was “significantly decreased”, the “concentration of Aβ1-42 compared to controls” value was “significantly decreased” and the “concentration of total β-amyloid (Aβ1-40+Aβ1-42) compared to controls” value was “significantly decreased”. With `CCOC(=O)C1=C(C)NC(C)=C(C(=O)OCC)C1c1ccccc1Cl` [JFD 03305, diethyl 4-(2-chlorophenyl)-2,6-dimethyl-1,4-dihydropyridine-3,5-dicarboxylate] the “concentration of Aβ1-40 compared to controls” value was “significantly decreased”, the “concentration of Aβ1-42 compared to controls” value was “significantly decreased” and the “concentration of total β-amyloid (Aβ1-40+Aβ1-42) compared to controls” value was “significantly decreased”.
